Laboratory results reported in BindingDB's records for doi:10.1021/jm991074s (University of Catania, 2000).
pKi: −log10 of the molar value.

These compounds were tested against Cannabinoid receptor 2 (Homo sapiens, UniProt P34972) (assay: Binding affinity towards cloned human cannabinoid receptor 2).
Chain of Cannabinoid receptor 2 (P34972 whole entry): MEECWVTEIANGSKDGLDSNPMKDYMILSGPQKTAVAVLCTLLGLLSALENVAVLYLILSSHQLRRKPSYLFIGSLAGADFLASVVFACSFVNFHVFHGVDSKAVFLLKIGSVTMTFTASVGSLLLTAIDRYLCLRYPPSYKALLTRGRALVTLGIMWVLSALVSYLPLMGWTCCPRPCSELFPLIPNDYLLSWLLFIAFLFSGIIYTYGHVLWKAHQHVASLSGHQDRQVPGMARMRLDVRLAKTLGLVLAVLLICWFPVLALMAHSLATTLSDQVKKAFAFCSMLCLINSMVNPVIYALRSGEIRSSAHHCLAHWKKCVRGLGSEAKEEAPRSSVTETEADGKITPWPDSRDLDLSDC

In order of rising pKi:
1. CCCCC/C=C\C/C=C\C/C=C\C/C=C\CCC(C(=O)NCCO)C(C)C (stereo not given)  5.29
2. CCCCC/C=C\C/C=C\C/C=C\C/C=C\CCCC(=O)N1CCOCC1  6.27
3. CCCCC/C=C\C/C=C\C/C=C\C/C=C\CCCC(=O)NCCOC [(5Z,8Z,11Z,14Z)-Icosa-5,8,11,14-tetraenoic acid (2-methoxy-ethyl)-amide]  6.35
4. CCCCC/C=C\C/C=C\C/C=C\C/C=C\CCCC(=O)NCCF [(5Z,8Z,11Z,14Z)-Icosa-5,8,11,14-tetraenoic acid (2-fluoro-ethyl)-amide]  6.49
5. CCCCCn1ccc(C(=O)c2cccc3ccccc23)c1  6.49
6. CCCCC/C=C\C/C=C\C/C=C\C/C=C\CCC(C)C(=O)NCCF (stereo not given) [2-Methyl-icosa-5,8,11,14-tetraenoic acid (2-fluoro-ethyl)-amide (0689)]  6.89
7. CCCCCc1cc(O)c2c(c1)OC(C)(C)c1ccc(C)cc1-2 [6,6,9-Trimethyl-3-pentyl-6H-benzo[c]chromen-1-ol(Cannabinol)]  7.02
8. CC1=CCC2C(C1)c1c(O)cc(CCCCC(F)(F)F)cc1OC2(C)C (stereo not given)  7.52
9. CC1=CCC2C(C1)c1c(O)cc(CCCCCF)cc1OC2(C)C (stereo not given)  8.06
10. CCCCCn1c(C)c(C(=O)c2cccc3ccccc23)c2ccccc21 [JWH-007]  8.52
